# Measured values published in publication PMC3970110 (Bioorganic & medicinal chemistry letters, 2013).
# Target: T1, human NAD+-dependent 15-hydroxyprostaglandin dehydrogenase (HPGD, 15-PGDH) (Homo sapiens, UniProt P15428)
# T1 sequence (P15428 1-266): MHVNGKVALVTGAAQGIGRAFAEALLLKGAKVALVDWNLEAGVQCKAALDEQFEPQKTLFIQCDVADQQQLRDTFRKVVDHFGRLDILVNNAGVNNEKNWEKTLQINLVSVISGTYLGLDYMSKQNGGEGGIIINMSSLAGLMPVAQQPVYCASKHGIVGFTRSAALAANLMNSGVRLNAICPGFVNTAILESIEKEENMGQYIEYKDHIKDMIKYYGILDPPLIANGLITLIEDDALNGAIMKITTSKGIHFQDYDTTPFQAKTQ
# Experiment: HPGD HTS enzymatic assay
# Type: biochemical
smiles,measurement,value
Cc1cccc(-n2cnc3cc(C(=O)N4CCCC4)ccc32)c1 [Compound 11i],decrease in HPGD activity relative to ML148,20 fold
